Test results taken from US11129909B2, “Conjugate and block copolymer containing fluorescent chromophore and preparation method therefor and use thereof” (priority 2017, dated 2021).

Columns and labels:
[1] = test system: HT29 cells (normal CEA and normal NQO1); test: CLSM detection of intracellular CEA and quinone oxidoreductase, HT29 cells; type: cell-based; conditions: HT29 cells co-cultured with conjugate
From the text: (§1) Viable HepG2 cells (lacking CEA and NQO1), LS180 cells (normal CEA and lacking NQO1) and HT29 cells (normal CEA and normal NQO1) were co-cultured with QNAM-C1-ACEA antibody-probe conjugate.

[2] = test system: HepG2 cells (lacking CEA and NQO1); test: CLSM detection of intracellular CEA and quinone oxidoreductase, HepG2 cells; type: cell-based; conditions: HepG2 cells co-cultured with conjugate
From the text: as §1

NQO1 = NQO1 (Homo sapiens, UniProt P15559); test: Enzyme detection by antibody-probe conjugate: fluorescence/FRET change with NADPH/NQO1; type: biochemical; conditions: NADPH/NQO1 in water system, culture time of about 1 h; NAM emission 530 nm vs C1 emission 435 nm
NQO1, sequence (P15559 whole entry, species assumed): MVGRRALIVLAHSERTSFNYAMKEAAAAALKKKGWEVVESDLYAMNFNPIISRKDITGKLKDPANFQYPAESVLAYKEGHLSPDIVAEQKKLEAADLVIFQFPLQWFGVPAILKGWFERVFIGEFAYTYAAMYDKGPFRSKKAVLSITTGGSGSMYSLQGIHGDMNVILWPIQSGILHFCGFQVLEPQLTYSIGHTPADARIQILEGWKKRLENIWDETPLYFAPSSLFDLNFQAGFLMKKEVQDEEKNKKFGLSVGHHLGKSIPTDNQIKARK
Procedure: In a culture time of about 1 h, a change of about 20 times the FRET ratio (intensity ratio of two emission peaks) can be seen (see inset). The above results indicated the occurrence of an efficient FRET process between the C1 coumarin linkage bond and the enzymatic-produced NAM residue.

[3] = test system: LS180 cells (normal CEA and lacking NQO1); test: CLSM detection of intracellular CEA and quinone oxidoreductase, LS180 cells; type: cell-based; conditions: LS180 cells co-cultured with conjugate
From the text: as §1

COC(=O)CC(SC)C(=O)Nc1cc2ccc(-c3cn(CCN4C(=O)c5cccc6c(NC(=O)CC(C)(C)C7=C(C)C(=O)C(C)=C(C)C7=O)ccc(c56)C4=O)nn3)cc2oc1=O (stereo not shown) [QNAM-C1-ACEA]
CLSM emission of C1 coumarin (blue) and NAM (green) in cells [1]: green channel NAM emission was obviously enhanced
CLSM emission of C1 coumarin (blue) and NAM (green) in cells [2]: very low blue and green emission
change of the FRET ratio (intensity ratio of two emission peaks) (NQO1): about 20 times
CLSM emission of C1 coumarin (blue) and NAM (green) in cells [3]: intermittent blue luminous points of C1 coumarin and few NAM green emission signals
